# Assays:
# [1] = system: RhoA-ROCK signaling pathway; experiment: RhoA activity, ROCK activity and MLC phosphorylation in HUVECs; assay type: cell-based, human
# Procedure: RhoA activities were determined using a RhoA activation assay kit (BK036, Cytoskeleton). […] Cells were lysed and the cell lysates were incubated with the rhotekin beads (50 μg/sample) for 1 h at 4° C., washed two times, and eluted with Laemmli sample buffer. Bound RhoA, which is an active form of RhoA, was analyzed by SDS-PAGE separation followed by immunoblotting with an anti-RhoA antibody (ARH03, Cyto skeleton). The amount of total RhoA was also analyzed by immunoblotting using the same antibody in order to normalize the relative activity of RhoA.
# ROCK activities were determined using a ROCK activity assay kit (CSA001, Millipore). HUVECs were lysed and cell lysates were incubated for 1 hr at room temperature in 96-well plates pre-coated with recombinant MYPT1, which contain Thr696 residue that can be phosphorylated by active ROCK. The plates were washed and incubated with anti-phospho-MYPT1 (Thr696) antibody followed by incubation with HRP-conjugated secondary antibody and HRP substrate reagent. The relative amount of active ROCK was measured by a microplate reader at 450 nm (Bio-Rad).
# At the indicated time, tumor tissues or cultured HUVECs were homogenized in ice-cold lysis buffer containing a protease inhibitor cocktail (Roche). […] Chemiluminescent signals were developed with HRP substrate (Millipore) and detected with a LAS-1000 mini (Fuji film).
# [2] = system: LLC tumor vessels; experiment: LLC tumor model, CD31+ tumor vessel density; assay type: in vivo, mouse; conditions: for reduction of vascular density, intratumoral region / reduction of vascular density, peritumoral region: CA4P 50 mg/kg, 6 days after first treatment
# Procedure: (§1) LLC and B16F10 melanoma cells were obtained from American Type Culture Collection. To generate implantation tumor models, suspensions of tumor cells (1×10^6 cells in 100 μl) were SC injected into the dorsal flank of 8 to 10 weeks old mice. Tumor volumes were measured at given time points. Tumor volume was calculated according to the formula, 0.5×A×B^2, where A is the largest diameter of a tumor and B is its perpendicular diameter. Tumor growth rate is defined as increased tumor volume relative to 2 days before. Indicated days later, the mice were anesthetized and tissues were harvested for further analyses. Tamoxifen (4 mg/kg, 4 times every 2 days, Sigma-Aldrich) was IP injected into Cdh5(PAC)-Cre^ERT2;Rhor^fl/fl mice starting from the day before tumor implantation or after the tumor volume had exceeded 300 mm^3. Cisplatin (10 mg/kg, every 7 days, Sigma-Aldrich) is IP injected for cytotoxic chemotherapy when tumor volume exceeded 100 mm^3. VEGF-trap (25 mg/kg, indicated schedule) is SC injected as an AIA therapy. CA4P (50 mg/kg, every 2 days, Sigma-Aldrich) was IP injected as a VDA therapy. As a control, equal amounts of Fc or PBS was injected in the same manner. To knock down RhoJ in vivo, control or RhoJ siRNA (2 mg/kg, indicated schedule), which were encapsulated into aptEDB-LS complexes, were IV injected into tumor-bearing mice.
# For hematoxylin and eosin (H&E) staining, tumors and indicated organs were fixed overnight in 4% paraformaldehyde (PFA). After tissue processing using standard procedures, samples were embedded in paraffin and cut into 3-1 μm sections followed by H&E staining. For immunofluorescence studies, samples were fixed in 1% PFA, dehydrated in 20% sucrose solution overnight, and embedded in tissue freezing medium (Leica). Frozen blocks were cut into 50-1 μm sections. Samples were blocked with 5% goat (or donkey) serum in PBST (0.03% Trition X-100 in PBS) and then incubated for 3 hr at room temperature (RT) with the following primary antibodies: anti-GFP (rabbit polyclonal, Millipore), anti-CD31 (hamster, clone 2H8, Millipore), anti-RhoJ (mouse, clone 1E4, Novus), anti-RhoJ (mouse, clone 1D7, OriGene), FITC-conjugated anti-c′-SMA (mouse, clone 1A4, Sigma-Aldrich), anti-VE-cadherin (rat, clone 11D4.1, BD Phamingen), anti-VE-cadherin (rabbit, clone D87F2, Cell Signaling), anti-PDGFRβ (rat, eBioscience), anti-Ter119 (rat, clone TER-119, eBioscience), anti-caspase-3 (rabbit polyclonal, R&D systems), anti-LYVE-1 (rabbit polyclonal, Angiobio), anti-pan-cytokeratin (mouse, clone AE1/AE3, Abcam), anti-melanin-A (rabbit polyclonal, Abcam), anti-collagen type IV (rabbit polyclonal, Cosmo Bio), or anti-cisplatin modified DNA (rat monoclonal, Abcam). After several washes, the samples were incubated for 2 hr at RT with the following secondary antibodies: FITC-, Cy3-, or Cy5-conjugated anti-hamster IgG (Jackson ImmunoResearch), FITC- or Cy3-conjugated anti-rabbit IgG (Jackson ImmunoResearch), Cy3-conjugated anti-rat IgG (Jackson ImmunoResearch), or Cy3-conjugated anti-mouse IgG (Jackson ImmunoResearch). Goat Fab fragment anti-mouse IgG (Jackson ImmunoResearch) was used to block endogenous mouse IgG to use mouse antibody on mouse tissues. F-actin was stained with acti-stain 555 phalloidin (Cytoskeleton). Nuclei were stained with 4′,6-diamidino-2-phenylindole (DAPI, Invitrogen). Then the samples were mounted with fluorescent mounting medium (DAKO) and immunofluorescent images were acquired using a Zeiss LSM510 confocal microscope (Carl Zeiss). To detect the hypoxic areas in the tumors, Hypoxyprobe-1™ (60 mg/kg, solid pimonidazole hydrochloride, Natural Pharmacia International) was IV injected 90 min before perfusion-fixation. The tumors were then harvested, sectioned, and stained with FITC-conjugated anti-Hypoxyprobe antibody.
# Density measurement of blood vessels, metastasis, hemorrhagic area, leakage area, and perfusion area were performed with ImageJ software (http://rsb.info.nih.gov/ij). […]
# [3] = system: HUVECs; experiment: In vitro vascular permeability assay (FITC-dextran across EC monolayer); assay type: cell-based, human; conditions: siJ-ECs treated with CA4P (20 nM) compared to siC-ECs treated with PBS
# Procedure: (§2) HUVECs were purchased from Lonza, cultured in endothelial growth medium (EGM-2, Lonza) and incubated in a humidified atmosphere with 5% CO2 at 37° C. The cells used were between passages 3 to 8. Transfections of siRNA duplexes into HUVECs were performed using Lipofectamine® RNAiMAX (Invitrogen) at a final concentration of 40 nM according to the manufacturer's protocol.
# For in vitro vascular permeability assay, HUVECs were cultured on collagen-coated 1.0 μm-size pore insert (Millipore). After starvation for 12 hr, the cells were treated with or without VEGF (50 ng/ml) or CA4P (20 nM) for 2 hr and was then incubated with 70 kDa FITC-Dextran for 20 min. Each solution in plate wells were read with a Victor X2 multilabel plate reader.
# [4] = system: LLC tumor; experiment: LLC tumor model, cytokeratin+ metastasis to inguinal LNs; assay type: in vivo, mouse; conditions: CA4P 50 mg/kg
# Procedure: as §1, with “tumor-bearing mice. […]” for “tumor-bearing mice.”
# [5] = system: LLC tumor; experiment: LLC implantation tumor model, tumor growth; assay type: in vivo, mouse; conditions: for maintenance of tumor growth response to CA4P: CA4P 50 mg/kg; for decrease of LLC tumor growth: RhoJ-WT mice
# Procedure: as §1
# [6] = system: HUVECs; experiment: In vitro Matrigel tube formation assay; assay type: cell-based, human; conditions: siJ-ECs (RhoJ knockdown) with CA4P 20 nM, 12 hr; compared to single treatment
# Procedure: as §2
# For matrigel tube formation assay, growth factor reduced Matrigel (BD bioscience) was thawed overnight at 4° C. The Matrigel was allowed to solidify on a 4-well culture dishes at 37° C. for 30 min. Cells were harvested and seeded at a density of 2×10^4 cells/well in growth media. Cells were then incubated at 37° C. for a further 12 hr. Tube formation was observed by taking pictures using a Leica DM IL microscope. The matrigel assays were quantified by counting the number of nodes and tubules from five different fields for each condition.
# [7] = system: LLC tumor; experiment: LLC tumor model, intratumoral necrosis and hemorrhage (H&E); assay type: in vivo, mouse; conditions: RhoJ-KO mice treated with cisplatin compared to RhoJ-WT mice treated with cisplatin; 2 weeks after treatment
# Procedure: To generate implantation tumor models, suspensions of tumor cells (1×10^6 cells in 100 μl) were SC injected into the dorsal flank of 8 to 10 weeks old mice. Tumor volumes were measured at given time points. Tumor volume was calculated according to the formula, 0.5×A×B^2, where A is the largest diameter of a tumor and B is its perpendicular diameter. Tumor growth rate is defined as increased tumor volume relative to 2 days before. Indicated days later, the mice were anesthetized and tissues were harvested for further analyses. […]
# Density measurement of blood vessels, metastasis, hemorrhagic area, leakage area, and perfusion area were performed with ImageJ software (http://rsb.info.nih.gov/ij). For blood vessel density, CD31^+ area per random 0.42 mm^2 areas was measured in the peri- and intratumoral regions. To determine the amount of blood vessels that express RhoJ, GFP^+&CD31^+ area per CD31^+ area in five random 0.42 mm^2 areas were calculated. In addition, to find the percentage of CD31^+ endothelial cells within RhoJ-GFP expressing cells, the GFP^+&CD31^+ area per total GFP^+ area was also calculated. […] The area of cytokeratin^+ fluorescence was presented as % per total sectioned area of lymph node. […] The extent of hemorrhage was measured as a % of Ter-119^+ area per random 0.24 mm^2 areas. Vascular leakage was quantified as the dextran^+ area % per random 0.42 mm^2.
# [8] = system: LLC tumor; experiment: Intratumoral cisplatin-modified DNA area in LLC tumor; assay type: in vivo, mouse; conditions: RhoJ-KO mice compared to RhoJ-WT mice
# Procedure: as §1, with “tumor-bearing mice. […]” for “tumor-bearing mice.”
# [9] = LLC implanted WT mice, en-siJ 2 mg/kg, VEGF-trap 25 mg/kg, 12 days after first treatment
# [10] = RhoJ-KO mice, VEGF-trap 25 mg/kg, 9 days after first treatment
# [11] = RhoJ-WT mice, VEGF-trap 25 mg/kg, 9 days after first treatment
compound,measurement,setting,value
"COc1ccc(/C=C\c2cc(OC)c(OC)c(OC)c2)cc1OP(=O)(O)O [CA4P, combretastatin-A4-phosphate]",RhoA-ROCK signaling pathway (MLC phosphorylation),"[1]; RhoJ knockdown in combination with CA4P 20 nM, 30 min",further activated
same,"reduction of vascular density, intratumoral region",[2]; RhoJ-KO mice,60%
same,"reduction of vascular density, peritumoral region",[2]; RhoJ-KO mice,59%
same,"reduction of vascular density, intratumoral region",[2]; RhoJ-WT mice,31%
same,"reduction of vascular density, peritumoral region",[2]; RhoJ-WT mice,13%
same,increase in permeability across the EC monolayer,[3],2.9 fold
same,reduction of metastasis (inguinal LNs),[4]; RhoJ-KO mice,67%
same,reduction of metastasis (inguinal LNs),[4]; RhoJ-WT mice,no reduction
same,additional inhibition in tumor growth,"[5]; LLC, RhoJ-KO mice, CA4P 50 mg/kg IP every 2 days",79%
same,reduction in tumor growth,"[5]; LLC, WT mice, CA4P 50 mg/kg IP every 2 days",18%
same,maintenance of tumor growth response to CA4P,[5]; RhoJ-KO mice,durable response
same,maintenance of tumor growth response to CA4P,[5]; WT mice,not maintained
same,EC tube formation,[6],almost complete disruption
"N.N.[Cl][Pt][Cl] [Cisplatin, cisplatin]",increased intratumoral necrosis,[7],80%
same,increase in intratumoral accumulation of cisplatin,[8],~2.0 fold
same,delay of LLC tumor growth,"[5]; RhoJ-KO mice, cisplatin 10 mg/kg IP once every week from tumor volume >100 mm^3",90%
same,decrease of LLC tumor growth,[5]; cisplatin 10 mg/kg IP once every week from tumor volume >100 mm^3,64%
C[C@@H](N)[C@H]1CC[C@H](C(=O)Nc2ccncc2)CC1 [Y-27632],"RhoA activity, ROCK activity and MLC phosphorylation increased in siJ-ECs, after ROCK inhibitor",[1]; siJ-ECs treated with Y-27632 (up to 20 μM) for 1 hr,almost completely diminished
"VEGF-trap: VEGF decoy receptor; recombinant protein from stable CHO cell lines, sequesters VEGF","decrease of tumor vessel density, intratumoral region",[2]; [9],~50%
same,"decrease of tumor vessel density, peritumoral region",[2]; [9],~45%
same,"reduction of tumor vascular density, intratumoral area",[2]; [10],68%
same,"reduction of tumor vascular density, peritumoral area",[2]; [10],66%
same,"decrease of tumor vascular density, intratumoral area",[2]; [11],49%
same,"decrease of tumor vascular density, peritumoral area",[2]; [11],43%
same,delay of LLC tumor growth,"[5]; RhoJ-KO mice, VEGF-trap 25 mg/kg SC, vs Fc",88%
same,decrease of LLC tumor growth,"[5]; VEGF-trap 25 mg/kg SC, vs Fc",47%

# From US20140370079A1, “METHOD FOR TARGETING VASCULAR RHOJ FOR INHIBITING TUMOR ANGIOGENESIS” (Korea Advanced Institute of Science and Technology (KAIST), priority 2013, published 2014)
